Assay results: patent publication US12594276B2, “Inhibitors of human immunodeficiency virus replication” (ViiV Healthcare UK (No.5) Limited, priority 2024, dated 2026)
Where two headings read alike, the source gives them in different places.

Assays:
[1] = Compound cytotoxicity, XTT-based colorimetric assay; format: cell-based; settings: human
In short: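 Cells seeded as for the antiviral assay but left uninfected (MT2). Compound exposure continued to day 4. XTT reagent added and colour read. CC50 calculated.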

[2] = system: recombinant NL4-3 virus (nef section replaced with Renilla luciferase gene) in MT-2 cells; assay: HIV cell culture assay (antiviral activity, luciferase readout); format: cell-based; settings: Renilla, NL43, MT-2 cells infected for 4-5 days with recombinant NL4-3 Renilla luciferase virus
In short: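 Reporter virus is produced in 293T cells and its titer set in MT-2 cells by luciferase activity. MT-2 cells are then infected in the presence of serially diluted compound for 4-5 days. Luciferase is quantified and EC50 fitted to the median effect equation.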

[3] = uninfected MT2 cells, day 4, XTT, read-out: CC50

| Structure (SMILES) | CC50 at 4 days [1, 3] [nM] | EC50 [2] [nM] | CC50 at 4 days [1] [nM] |
| --- | --- | --- | --- |
| CS(=O)(=O)Nc1nn(CCN2CCC(F)(F)C2)c2c(-n3c([C@H](Cc4cc(F)cc(F)c4)NC(=O)Cn4nc(C(F)F)c5c4C(F)(F)[C@@H]4C[C@H]54)nc4nc(C5CCC(F)(F)CC5)cc(C5CC5)c4c3=O)ccc(Cl)c12 (atropisomer, axis not shown; (P)) [Example 354, N-[(1S)-1-[(3P)-3-{4-chloro-1-[2-(3,3-difluoropyrrolidin-1-yl)ethyl]-3-methanesulfonamido-1H-indazol-7-yl}-5-cyclopropyl-7-(4,4-difluorocyclohexyl)-4-oxo-3H,4H-pyrido[2,3-d]pyrimidin-2-yl]-2-(3,5-difluorophenyl)ethyl]-2-[(2S,4R)-9-(difluoromethyl)-5,5-difluoro-7,8-diazatricyclo[4.3.0.0^2,^4]nona-1(6),8-dien-7-yl]acetamide] | > 50 | 0.022 |  |
| COC[C@H]1CN(CCn2nc(NS(C)(=O)=O)c3c(Cl)ccc(-n4c([C@H](Cc5cc(F)cc(F)c5)NC(=O)Cn5nc(C(F)F)c6c5C(F)(F)[C@@H]5C[C@H]65)nc5nc(C6CCC(F)(F)CC6)ccc5c4=O)c32)CCO1 (atropisomer, axis not shown; (P)) [Example 356, N-[(1S)-1-[(3P)-3-(4-chloro-3-methanesulfonamido-1-{2-[(2R)-2-(methoxymethyl)morpholin-4-yl]ethyl}-1H-indazol-7-yl)-7-(4,4-difluorocyclohexyl)-4-oxo-3H,4H-pyrido[2,3-d]pyrimidin-2-yl]-2-(3,5-difluorophenyl)ethyl]-2-[(2S,4R)-9-(difluoromethyl)-5,5-difluoro-7,8-diazatricyclo[4.3.0.0^2,^4]nona-1(6),8-dien-7-yl]acetamide] | > 50 | 0.029 |  |
| C[C@@H]1CN(CCn2nc(NS(C)(=O)=O)c3c(Cl)ccc(-n4c([C@H](Cc5cc(F)cc(F)c5)NC(=O)Cn5nc(C(F)F)c6c5C(F)(F)[C@@H]5C[C@H]65)nc5nc(C6CCC(F)(F)CC6)ccc5c4=O)c32)CCO1 (atropisomer, axis not shown; (P)) [Example 360] | > 50 | 0.01 |  |
| CS(=O)(=O)Nc1nn(CCN2CCC(F)CC2)c2c(-n3c([C@H](Cc4cc(F)cc(F)c4)NC(=O)Cn4nc(C(F)F)c5c4C(F)(F)[C@@H]4C[C@H]54)nc4nc(C5CCC(F)(F)CC5)cc(C(F)F)c4c3=O)ccc(Cl)c12 (atropisomer, axis not shown; (P)) [Example 370, N-[(1S)-1-[(3P)-3-{4-chloro-1-[2-(4-fluoropiperidin-1-yl)ethyl]-3-methanesulfonamido-1H-indazol-7-yl}-7-(4,4-difluorocyclohexyl)-5-(difluoromethyl)-4-oxo-3H,4H-pyrido[2,3-d]pyrimidin-2-yl]-2-(3,5-difluorophenyl)ethyl]-2-[(2S,4R)-9-(difluoromethyl)-5,5-difluoro-7,8-diazatricyclo[4.3.0.0^2,^4]nona-1(6),8-dien-7-yl]acetamide] | > 20 | 0.009 |  |
| CS(=O)(=O)Nc1nn(CCN2CCC(F)CC2)c2c(-n3c([C@H](Cc4cc(F)cc(F)c4)NC(=O)Cn4nc(C5CC5)c5c4C[C@@H]4C[C@H]54)nc4nc(C5CCC(F)(F)CC5)cc(C(F)F)c4c3=O)ccc(Cl)c12 (atropisomer, axis not shown; (P)) [Example 371, N-[(1S)-1-[(3P)-3-{4-chloro-1-[2-(4-fluoropiperidin-1-yl)ethyl]-3-methanesulfonamido-1H-indazol-7-yl}-7-(4,4-difluorocyclohexyl)-5-(difluoromethyl)-4-oxo-3H,4H-pyrido[2,3-d]pyrimidin-2-yl]-2-(3,5-difluorophenyl)ethyl]-2-[(2S,4S)-9-cyclopropyl-7,8-diazatricyclo[4.3.0.0^2,^4]nona-1(6),8-dien-7-yl]acetamide] | > 20 | 0.009 |  |
| COCCCn1nc(NS(C)(=O)=O)c2c(Cl)ccc(-n3c([C@H](Cc4cc(F)cc(F)c4)NC(=O)Cn4nc(C(F)F)c5c4C(F)(F)[C@@H]4C[C@H]54)nc4nc(C5CCC(F)(F)CC5)cc(C5CC5)c4c3=O)c21 (atropisomer, axis not shown; (P)) [Example 375, N-[(1S)-1-[(3P)-3-[4-chloro-3-methanesulfonamido-1-(3-methoxypropyl)-1H-indazol-7-yl]-5-cyclopropyl-7-(4,4-difluorocyclohexyl)-4-oxo-3H,4H-pyrido[2,3-d]pyrimidin-2-yl]-2-(3,5-difluorophenyl)ethyl]-2-[(2S,4R)-9-(difluoromethyl)-5,5-difluoro-7,8-diazatricyclo[4.3.0.0^2,^4]nona-1(6),8-dien-7-yl]acetamide] | > 20 | 0.014 |  |
| COCCCn1nc(NS(C)(=O)=O)c2c(Cl)ccc(-n3c([C@H](Cc4cc(F)cc(F)c4)NC(=O)Cn4nc(C5CC5)c5c4C[C@@H]4C[C@H]54)nc4nc(C5CCC(F)(F)CC5)cc(C5CC5)c4c3=O)c21 (atropisomer, axis not shown; (P)) [Example 376, N-[(1S)-1-[(3P)-3-[4-chloro-3-methanesulfonamido-1-(3-methoxypropyl)-1H-indazol-7-yl]-5-cyclopropyl-7-(4,4-difluorocyclohexyl)-4-oxo-3H,4H-pyrido[2,3-d]pyrimidin-2-yl]-2-(3,5-difluorophenyl)ethyl]-2-[(2S,4S)-9-cyclopropyl-7,8-diazatricyclo[4.3.0.0^2,^4]nona-1(6),8-dien-7-yl]acetamide] | > 20 | 0.016 |  |
| CS(=O)(=O)Nc1nn(CCN2[C@@H]3CC[C@H]2COC3)c2c(-n3c([C@H](Cc4cc(F)cc(F)c4)NC(=O)Cn4nc(C5CC5)c5c4C[C@@H]4C[C@H]54)nc4nc(C5CCC(F)(F)CC5)ccc4c3=O)ccc(Cl)c12 (atropisomer, axis not shown; (P)) [Example 381, N-[(1S)-1-[(3P)-3-(4-chloro-3-methanesulfonamido-1-{2-[(1R,5S)-3-oxa-8-azabicyclo[3.2.1]octan-8-yl]ethyl}-1H-indazol-7-yl)-7-(4,4-difluorocyclohexyl)-4-oxo-3H,4H-pyrido[2,3-d]pyrimidin-2-yl]-2-(3,5-difluorophenyl)ethyl]-2-[(2S,4S)-9-cyclopropyl-7,8-diazatricyclo[4.3.0.0^2,^4]nona-1(6),8-dien-7-yl]acetamide] |  | 0.007 | > 20 |
| CS(=O)(=O)Nc1nn(CCN2CCN(S(C)(=O)=O)CC2)c2c(-n3c([C@H](Cc4cc(F)cc(F)c4)NC(=O)Cn4nc(C5CC5)c5c4C[C@@H]4C[C@H]54)nc4nc(C5CCC(F)(F)CC5)ccc4c3=O)ccc(Cl)c12 (atropisomer, axis not shown; (P)) [Example 382, N-[(1S)-1-[(3P)-3-{4-chloro-3-methanesulfonamido-1-[2-(4-methanesulfonylpiperazin-1-yl)ethyl]-1H-indazol-7-yl}-7-(4,4-difluorocyclohexyl)-4-oxo-3H,4H-pyrido[2,3-d]pyrimidin-2-yl]-2-(3,5-difluorophenyl)ethyl]-2-[(2S,4S)-9-cyclopropyl-7,8-diazatricyclo[4.3.0.0^2,^4]nona-1(6),8-dien-7-yl]acetamide] | > 20 | 0.037 |  |
| Cc1cc(C2CCC(F)(F)CC2)nc2nc([C@H](Cc3cc(F)cc(F)c3)NC(=O)Cn3nc(C4CC4)c4c3C[C@@H]3C[C@H]43)n(-c3ccc(Cl)c4c(NS(C)(=O)=O)nn(CC(=O)N5C[C@@H](C)O[C@@H](C)C5)c34)c(=O)c12 (atropisomer, axis not shown; (P)) [Example 384, N-[(1S)-1-[(3P)-3-(4-chloro-1-{2-[(2R,6S)-2,6-dimethylmorpholin-4-yl]-2-oxoethyl}-3-methanesulfonamido-1H-indazol-7-yl)-7-(4,4-difluorocyclohexyl)-5-methyl-4-oxo-3H,4H-pyrido[2,3-d]pyrimidin-2-yl]-2-(3,5-difluorophenyl)ethyl]-2-[(2S,4S)-9-cyclopropyl-7,8-diazatricyclo[4.3.0.0^2,^4]nona-1(6),8-dien-7-yl]acetamide] | > 20 | 0.025 |  |
| COCCN(CCOC)C(=O)Cn1nc(NS(C)(=O)=O)c2c(Cl)ccc(-n3c([C@H](Cc4cc(F)cc(F)c4)NC(=O)Cn4nc(C5CC5)c5c4C[C@@H]4C[C@H]54)nc4nc(C5CCC(F)(F)CC5)cc(C)c4c3=O)c21 (atropisomer, axis not shown; (P)) [Example 387, 2-[(6P)-4-chloro-7-{2-[(1S)-1-{2-[(2S,4S)-9-cyclopropyl-7,8-diazatricyclo[4.3.0.0^2,^4]nona-1(6),8-dien-7-yl]acetamido}-2-(3,5-difluorophenyl)ethyl]-7-(4,4-difluorocyclohexyl)-5-methyl-4-oxo-3H,4H-pyrido[2,3-d]pyrimidin-3-yl}-3-methanesulfonamido-1H-indazol-1-yl]-N,N-bis(2-methoxyethyl)acetamide] | > 20 | 0.039 |  |
| Cc1cc(C2CCC(F)(F)CC2)nc2nc([C@H](Cc3cc(F)cc(F)c3)NC(=O)Cn3nc(C4CC4)c4c3C[C@@H]3C[C@H]43)n(-c3ccc(Cl)c4c(NS(C)(=O)=O)nn(CC(=O)NCCOC(C)C)c34)c(=O)c12 (atropisomer, axis not shown; (P)) [Example 393, N-[(1S)-1-[(3P)-3-[4-chloro-3-methanesulfonamido-1-({[2-(propan-2-yloxy)ethyl]carbamoyl}methyl)-1H-indazol-7-yl]-7-(4,4-difluorocyclohexyl)-5-methyl-4-oxo-3H,4H-pyrido[2,3-d]pyrimidin-2-yl]-2-(3,5-difluorophenyl)ethyl]-2-[(2S,4S)-9-cyclopropyl-7,8-diazatricyclo[4.3.0.0^2,^4]nona-1(6),8-dien-7-yl]acetamide] | > 20 | 0.035 |  |
